In ChEMBL document CHEMBL1201862, “PubChem BioAssay data set” (2004):
Activity calls are given as the source filed them.

Experiments:
[1] = target: Voltage-dependent T-type calcium channel subunit alpha-1H (Homo sapiens, UniProt O95180); format: functional;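 also: channel activity triggered by adding a high calcium stimulation buffer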
[2] = target: T1, Long-chain-fatty-acid--AMP ligase FadD28 (Mycobacterium tuberculosis, UniProt P9WQ59); experiment: Fluorescence polarization aasay to screen for inhibitors that compete for the binding of FadD28 to a bisubstrate Measured in Biochemical System Using Plate Reader - 2147-01_Inhibitor_Dose_CherryPick_Activity.; format: functional, Mycobacterium tuberculosis H37Rv
T1 sequence (P9WQ59 whole entry): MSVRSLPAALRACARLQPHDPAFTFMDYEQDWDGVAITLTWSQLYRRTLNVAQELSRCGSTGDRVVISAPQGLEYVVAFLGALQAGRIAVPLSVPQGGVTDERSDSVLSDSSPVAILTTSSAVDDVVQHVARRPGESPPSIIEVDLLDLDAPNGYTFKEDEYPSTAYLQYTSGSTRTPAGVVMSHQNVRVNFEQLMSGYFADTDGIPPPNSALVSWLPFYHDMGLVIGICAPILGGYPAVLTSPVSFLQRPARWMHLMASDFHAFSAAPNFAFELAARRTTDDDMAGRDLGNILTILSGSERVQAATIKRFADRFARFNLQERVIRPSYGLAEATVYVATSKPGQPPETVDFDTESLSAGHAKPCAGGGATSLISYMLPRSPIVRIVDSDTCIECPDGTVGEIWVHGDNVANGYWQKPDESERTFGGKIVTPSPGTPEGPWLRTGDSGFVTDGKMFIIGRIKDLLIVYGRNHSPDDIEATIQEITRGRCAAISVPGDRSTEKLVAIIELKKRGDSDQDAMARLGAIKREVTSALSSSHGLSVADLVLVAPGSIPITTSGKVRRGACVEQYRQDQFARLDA

[3] = target: T2, Rac GTPase-activating protein 1 (Homo sapiens, UniProt Q9H0H5); experiment: MgcRacGAP GTPase-activating activity inhibitors, confirmation, biochemical, ADP Hunter fluorescence, primary and confirmatory (AID 624330); format: functional
T2 sequence (Q9H0H5 whole entry): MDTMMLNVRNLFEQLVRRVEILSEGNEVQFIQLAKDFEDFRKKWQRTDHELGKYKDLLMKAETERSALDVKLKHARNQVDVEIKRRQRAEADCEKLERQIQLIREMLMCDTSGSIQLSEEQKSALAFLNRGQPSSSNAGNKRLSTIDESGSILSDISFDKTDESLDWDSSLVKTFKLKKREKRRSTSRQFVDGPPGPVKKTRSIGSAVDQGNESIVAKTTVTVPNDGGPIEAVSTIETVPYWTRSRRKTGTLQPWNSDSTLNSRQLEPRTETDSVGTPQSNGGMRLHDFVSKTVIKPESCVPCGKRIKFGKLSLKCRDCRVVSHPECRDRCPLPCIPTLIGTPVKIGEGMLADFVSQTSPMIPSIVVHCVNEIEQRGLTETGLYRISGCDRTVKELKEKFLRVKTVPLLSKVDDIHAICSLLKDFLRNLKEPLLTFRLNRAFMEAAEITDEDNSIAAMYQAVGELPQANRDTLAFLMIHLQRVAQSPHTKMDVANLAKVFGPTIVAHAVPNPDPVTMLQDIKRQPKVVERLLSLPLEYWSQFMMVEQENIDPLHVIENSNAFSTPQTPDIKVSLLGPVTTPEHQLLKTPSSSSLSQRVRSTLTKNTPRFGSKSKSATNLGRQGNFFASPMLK

[4] = HeLa cell cytotoxicity, dose response, cytotoxicity control for MgcRacGAP inhibitor project (AID 624300); format: functional
P388 = experiment: cells; format: functional; conditions: Mus musculus
P388/ADR = experiment: cells; format: functional; conditions: Mus musculus
SN12K1 = experiment: cells; format: functional; conditions: Homo sapiens
[5] = ZM109 Env clade C HIV-1 fusion inhibitors, dose response, HeLa effector, CEM target cells, luciferase, cherry-pick (AID 652058); format: functional, cell-based
[6] = inhibitors of clade B AD8 Env fusion, dose response, cell-based, cherry-pick (AID 652062); format: functional;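 also: luciferase signal from cell-cell fusion driven by HIV-1 clade B AD8 Env; potency is for inhibitors of fusion seen as a drop in luminescence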
[7] = inhibitors of HIV Env-driven cell fusion, dose response, cherry-pick (AID 652057); format: functional, cell-based
[8] = target: Eukaryotic translation initiation factor 4E (Mus musculus, UniProt P63073); experiment: eIF4E–eIF4G protein interaction inhibitors, dose response, biochemical, TR-FRET (AID 855); format: functional;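 also: potency for disrupting eIF4E binding to eIF4GI seen as loss of FRET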
Fatty acid synthase [9] = target: T3, Fatty acid synthase (Homo sapiens, UniProt P49327); experiment: FAS thioesterase domain inhibitors, dose response, biochemical, endpoint fluorescence intensity, uHTS hits (AID 624327); format: functional;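 also: fluorescence from hydrolysis of an O-methyl fluorescein acyl ester substrate by the enzyme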
Fatty acid synthase [10] = target: T3, Fatty acid synthase; experiment: FAS thioesterase domain inhibitors, dose response, biochemical, kinetic fluorescence intensity (AID 624326); format: functional;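 also: rate of fluorescence rise from hydrolysis of a fluorogenic O-methyl fluorescein ester substrate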
[11] = target: DNA dC->dU-editing enzyme APOBEC-3G (Homo sapiens, UniProt Q9HC16); experiment: Dose Response confirmation of small molecule APOBEC3G DNA Deaminase Inhibitors via a fluorescence-based single-stranded DNA deaminase assay. [Related pubchem assays (depositor defined):AID493012, AID493028]; format: functional

Sequence of Voltage-dependent T-type calcium channel subunit alpha-1H (O95180 whole entry): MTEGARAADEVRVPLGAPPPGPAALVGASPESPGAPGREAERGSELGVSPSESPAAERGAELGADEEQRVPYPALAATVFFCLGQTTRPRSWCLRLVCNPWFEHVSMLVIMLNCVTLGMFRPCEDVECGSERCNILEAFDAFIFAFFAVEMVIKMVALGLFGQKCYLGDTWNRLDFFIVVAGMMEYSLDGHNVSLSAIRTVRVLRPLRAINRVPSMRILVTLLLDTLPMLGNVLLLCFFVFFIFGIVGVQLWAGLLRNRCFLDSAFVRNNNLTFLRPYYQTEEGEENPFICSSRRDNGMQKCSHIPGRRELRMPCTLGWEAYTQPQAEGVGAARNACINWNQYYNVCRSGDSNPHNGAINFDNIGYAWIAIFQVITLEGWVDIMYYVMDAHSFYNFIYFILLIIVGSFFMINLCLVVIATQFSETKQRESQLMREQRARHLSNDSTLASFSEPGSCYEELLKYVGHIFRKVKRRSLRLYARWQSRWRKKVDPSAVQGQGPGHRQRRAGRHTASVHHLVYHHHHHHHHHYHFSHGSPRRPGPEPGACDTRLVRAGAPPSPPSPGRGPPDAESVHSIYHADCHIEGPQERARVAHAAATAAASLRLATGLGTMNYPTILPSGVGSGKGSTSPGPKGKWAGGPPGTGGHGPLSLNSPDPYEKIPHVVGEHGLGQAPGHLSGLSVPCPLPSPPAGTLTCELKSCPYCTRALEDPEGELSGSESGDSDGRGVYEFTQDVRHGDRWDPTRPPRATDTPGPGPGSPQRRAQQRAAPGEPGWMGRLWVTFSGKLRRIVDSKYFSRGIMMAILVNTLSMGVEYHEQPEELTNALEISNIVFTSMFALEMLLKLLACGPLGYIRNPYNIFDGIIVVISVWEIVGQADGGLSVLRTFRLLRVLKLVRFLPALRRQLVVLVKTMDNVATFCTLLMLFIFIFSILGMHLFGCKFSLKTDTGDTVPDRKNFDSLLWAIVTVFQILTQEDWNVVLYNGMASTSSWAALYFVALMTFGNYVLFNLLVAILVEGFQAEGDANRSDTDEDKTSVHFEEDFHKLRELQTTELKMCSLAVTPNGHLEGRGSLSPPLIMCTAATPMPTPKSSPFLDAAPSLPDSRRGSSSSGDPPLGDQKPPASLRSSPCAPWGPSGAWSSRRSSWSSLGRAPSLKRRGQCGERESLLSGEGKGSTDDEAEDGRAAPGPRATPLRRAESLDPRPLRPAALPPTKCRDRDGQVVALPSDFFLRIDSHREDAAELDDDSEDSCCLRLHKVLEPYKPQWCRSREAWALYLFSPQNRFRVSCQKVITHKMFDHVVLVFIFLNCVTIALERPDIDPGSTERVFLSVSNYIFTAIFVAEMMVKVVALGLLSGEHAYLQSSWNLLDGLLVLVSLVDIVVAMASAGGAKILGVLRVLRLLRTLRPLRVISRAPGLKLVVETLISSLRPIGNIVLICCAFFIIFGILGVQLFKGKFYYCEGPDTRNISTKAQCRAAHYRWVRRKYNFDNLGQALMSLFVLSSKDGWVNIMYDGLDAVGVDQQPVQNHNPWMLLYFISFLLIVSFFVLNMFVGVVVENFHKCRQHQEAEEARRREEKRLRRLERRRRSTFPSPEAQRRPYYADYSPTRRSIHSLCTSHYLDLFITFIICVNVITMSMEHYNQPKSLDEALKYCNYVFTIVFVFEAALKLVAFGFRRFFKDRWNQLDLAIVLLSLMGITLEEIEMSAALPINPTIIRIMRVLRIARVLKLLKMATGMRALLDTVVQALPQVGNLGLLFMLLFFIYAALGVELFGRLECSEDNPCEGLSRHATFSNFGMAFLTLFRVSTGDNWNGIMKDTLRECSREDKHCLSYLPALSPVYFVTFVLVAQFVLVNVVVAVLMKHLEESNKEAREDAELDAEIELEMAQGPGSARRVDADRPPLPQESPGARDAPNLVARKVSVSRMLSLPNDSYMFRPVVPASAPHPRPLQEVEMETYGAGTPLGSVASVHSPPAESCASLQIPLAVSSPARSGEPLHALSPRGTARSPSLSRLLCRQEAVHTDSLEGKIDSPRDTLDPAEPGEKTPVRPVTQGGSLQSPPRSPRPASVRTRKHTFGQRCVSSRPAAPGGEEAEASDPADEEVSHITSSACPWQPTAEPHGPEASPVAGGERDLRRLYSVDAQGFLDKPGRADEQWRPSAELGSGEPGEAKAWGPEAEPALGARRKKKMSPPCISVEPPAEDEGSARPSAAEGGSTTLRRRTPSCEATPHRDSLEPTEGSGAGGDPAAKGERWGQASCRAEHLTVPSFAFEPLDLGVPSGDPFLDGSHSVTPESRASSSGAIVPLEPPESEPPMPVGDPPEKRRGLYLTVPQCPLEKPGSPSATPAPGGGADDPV
T3 sequence (P49327 whole entry, the tested form may be a part): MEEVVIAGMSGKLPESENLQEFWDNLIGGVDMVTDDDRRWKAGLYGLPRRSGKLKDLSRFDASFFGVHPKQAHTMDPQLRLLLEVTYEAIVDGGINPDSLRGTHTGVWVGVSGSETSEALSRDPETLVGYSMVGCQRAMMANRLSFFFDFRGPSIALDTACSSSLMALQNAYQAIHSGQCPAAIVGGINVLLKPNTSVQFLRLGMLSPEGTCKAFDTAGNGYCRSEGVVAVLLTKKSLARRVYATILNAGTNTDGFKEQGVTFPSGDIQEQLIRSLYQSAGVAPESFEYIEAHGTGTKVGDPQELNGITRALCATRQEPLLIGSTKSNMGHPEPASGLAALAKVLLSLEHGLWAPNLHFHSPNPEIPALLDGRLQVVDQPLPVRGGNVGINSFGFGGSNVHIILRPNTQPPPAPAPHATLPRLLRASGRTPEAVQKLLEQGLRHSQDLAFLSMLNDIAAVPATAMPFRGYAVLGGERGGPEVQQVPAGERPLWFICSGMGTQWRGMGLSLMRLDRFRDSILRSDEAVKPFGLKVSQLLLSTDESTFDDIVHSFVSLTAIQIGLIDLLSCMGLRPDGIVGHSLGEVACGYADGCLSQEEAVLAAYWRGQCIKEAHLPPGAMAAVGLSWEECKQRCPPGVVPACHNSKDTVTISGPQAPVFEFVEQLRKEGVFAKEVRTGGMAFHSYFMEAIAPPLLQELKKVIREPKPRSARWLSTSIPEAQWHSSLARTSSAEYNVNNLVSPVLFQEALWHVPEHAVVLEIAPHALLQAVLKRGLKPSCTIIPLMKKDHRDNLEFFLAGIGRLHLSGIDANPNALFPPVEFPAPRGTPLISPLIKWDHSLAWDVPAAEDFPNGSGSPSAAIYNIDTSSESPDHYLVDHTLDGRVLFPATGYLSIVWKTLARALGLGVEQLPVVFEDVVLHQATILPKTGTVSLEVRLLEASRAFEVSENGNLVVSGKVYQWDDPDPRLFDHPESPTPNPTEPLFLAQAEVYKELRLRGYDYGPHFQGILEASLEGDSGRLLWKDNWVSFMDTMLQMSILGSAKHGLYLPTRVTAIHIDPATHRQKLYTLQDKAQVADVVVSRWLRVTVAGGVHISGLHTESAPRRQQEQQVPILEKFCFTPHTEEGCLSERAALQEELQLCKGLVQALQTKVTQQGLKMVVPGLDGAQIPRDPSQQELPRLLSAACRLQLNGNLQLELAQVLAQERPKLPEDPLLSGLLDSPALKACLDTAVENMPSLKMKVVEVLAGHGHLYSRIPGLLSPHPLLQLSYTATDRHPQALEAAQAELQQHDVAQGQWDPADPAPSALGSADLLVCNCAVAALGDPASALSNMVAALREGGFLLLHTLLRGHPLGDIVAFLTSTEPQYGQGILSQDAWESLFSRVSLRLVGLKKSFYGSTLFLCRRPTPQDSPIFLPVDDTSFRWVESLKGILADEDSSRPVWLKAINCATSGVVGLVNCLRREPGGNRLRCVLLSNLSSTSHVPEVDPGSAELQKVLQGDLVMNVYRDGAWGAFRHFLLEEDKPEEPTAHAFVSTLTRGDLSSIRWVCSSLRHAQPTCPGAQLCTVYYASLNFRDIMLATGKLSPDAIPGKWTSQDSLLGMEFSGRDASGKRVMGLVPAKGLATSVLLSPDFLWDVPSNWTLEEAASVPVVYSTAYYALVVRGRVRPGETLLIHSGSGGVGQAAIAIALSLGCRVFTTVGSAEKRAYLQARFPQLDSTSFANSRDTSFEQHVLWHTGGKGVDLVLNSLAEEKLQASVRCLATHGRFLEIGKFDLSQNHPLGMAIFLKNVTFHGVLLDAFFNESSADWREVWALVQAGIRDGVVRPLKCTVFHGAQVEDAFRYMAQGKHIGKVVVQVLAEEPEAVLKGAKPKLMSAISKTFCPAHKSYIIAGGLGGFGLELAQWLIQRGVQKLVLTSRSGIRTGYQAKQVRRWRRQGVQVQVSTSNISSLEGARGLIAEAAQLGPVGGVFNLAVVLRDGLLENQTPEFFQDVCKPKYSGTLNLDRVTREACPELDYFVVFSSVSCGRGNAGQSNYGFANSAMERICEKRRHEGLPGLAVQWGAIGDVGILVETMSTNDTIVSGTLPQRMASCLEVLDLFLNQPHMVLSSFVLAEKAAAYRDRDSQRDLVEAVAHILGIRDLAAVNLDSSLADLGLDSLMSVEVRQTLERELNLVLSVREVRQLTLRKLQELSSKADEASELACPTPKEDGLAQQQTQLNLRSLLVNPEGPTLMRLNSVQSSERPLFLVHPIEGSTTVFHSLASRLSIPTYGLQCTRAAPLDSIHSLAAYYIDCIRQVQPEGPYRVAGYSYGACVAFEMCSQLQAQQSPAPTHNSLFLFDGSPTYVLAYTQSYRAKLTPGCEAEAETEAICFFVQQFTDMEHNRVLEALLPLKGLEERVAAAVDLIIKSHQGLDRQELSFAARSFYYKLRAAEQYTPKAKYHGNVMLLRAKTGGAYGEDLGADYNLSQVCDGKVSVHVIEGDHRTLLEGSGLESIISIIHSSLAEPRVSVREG
Sequence of Eukaryotic translation initiation factor 4E (P63073 whole entry, the tested form may be a part): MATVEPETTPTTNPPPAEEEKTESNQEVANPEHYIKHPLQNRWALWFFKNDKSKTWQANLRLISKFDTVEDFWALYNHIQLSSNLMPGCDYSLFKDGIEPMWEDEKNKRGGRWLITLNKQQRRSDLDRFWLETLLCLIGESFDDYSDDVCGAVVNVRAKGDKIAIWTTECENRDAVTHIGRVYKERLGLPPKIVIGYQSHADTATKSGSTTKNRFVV

O=C(CCSc1nc(-c2ccco2)cc(C(F)(F)F)n1)N1CCN(c2ccccn2)CC1
EC50 [1]: 6.47 µM (active)

COc1ccc(/C=C/C(=O)N(C)Cc2cccs2)cc1S(=O)(=O)N1CCOCC1
AC50 [2]: 42.6 µM (active)

COc1cc2c(cc1OC)C(/C=C/c1ccco1)=NCC2
IC50 [3]: 42.3 µM (active) | CC50 [4]: 100 µM (active)

N#C[C@H](OC1OC(COC2OC(CO)C(O)C(O)C2O)C(O)C(O)C1O)c1ccccc1 (stereo partly specified)
GI50 (P388): 232 µM (inactive) | GI50 (P388/ADR): 170 µM (inactive) | GI50 (SN12K1): > 250 µM (inactive)

Cc1noc(C)c1S(=O)(=O)N(C)C[C@@H]1Oc2ccc(NC(=O)Nc3cccc4ccccc34)cc2CC(=O)N([C@@H](C)CO)C[C@@H]1C
AC50 [5]: 2.44 µM (active) | AC50 [6]: 9.04 µM (active) | AC50 [7]: 4.83 µM (active)

O=C1CCC23CC(C=CC=C12)n1c(=O)n(-c2ccccc2)c(=O)n13 (stereo unspecified)
GI50 (P388): 49.9 µM (inactive) | GI50 (P388/ADR): 31 µM (inactive) | GI50 (SN12K1): > 100 µM (inactive)

CNC(=O)ON(C(C)=O)C(=O)NC [CARACEMIDE]
GI50 (P388): 16.4 µM (inactive) | GI50 (P388/ADR): 21.4 µM (inactive) | GI50 (SN12K1): 50.9 µM (inactive)

COc1ccc(NC(=O)Nc2ccc3c(c2)C(=O)N([C@@H](C)CO)C[C@H](C)[C@H](CN(C)Cc2ccncc2)OCCCC[C@H](C)O3)cc1
AC50 [5]: 0.412 µM (active) | AC50 [6]: 12.7 µM (active) | AC50 [7]: 0.541 µM (active)

CCS(=O)(=O)c1ccc2oc(Nc3ccc(C(C)C)cc3)nc2c1
IC50 [8]: > 64 µM (inactive) | IC50 (Fatty acid synthase [9]): 22.3 µM (inactive) | IC50 (Fatty acid synthase [10]): 12.6 µM (active) | IC50 [11]: 20.7 µM (active)

CC1CC(C)CN(C(=O)CSc2nnc(-c3ccc(Cl)s3)o2)C1 (stereo unspecified)
EC50 [1]: 10.8 µM (active)

CN1CCN(c2ccc(Cl)cc2NC(=O)C2COc3ccccc3O2)CC1 (stereo unspecified)
EC50 [1]: 8.08 µM (active)

CCc1nnc(NC(=O)CC(CN(C)S(=O)(=O)c2ccccc2)c2ccccc2)s1 (stereo unspecified)
EC50 [1]: 2.4 µM (active)
